Measured values published in patent US11517572B2, “Killing senescent cells and treating senescence-associated conditions using a SRC inhibitor and a flavonoid” (Mayo Foundation for Medical Education and Research, priority 2014, dated 2022).

How the values were obtained:
[1] = system: IMR90 cells; assay: Killing of radiation-induced senescent vs proliferating IMR90 fibroblasts; type: cell-based, human; settings: enzastaurin at 0.25 0.5 and 2 μM
From the text: Senescence of human primary lung fibroblasts (IMR90) (IMR-90 (ATCC® CCL-186TH, Mannassas, Va.) was induced by irradiation. IMR90 cells in culture were subjected to 10 Gy radiation (Day-7). Four days after irradiation (Day-3), the culture media was changed. Three days after the media change (Day 0), the cells were exposed to media containing quercetin. Non-irradiated IMR90 cells were included as controls. Non-irradiated and irradiated IMR90 cells were exposed to quercetin at concentrations of 5, 10, 15, and 45 μM. Percent survival was determined four days after exposure to the drugs (Day 4). The number of viable cells was determined by using ATPLITE (Perkin-Elmer, Waltham, Mass.).
In a separate experiment, IMR90 cells were irradiated as described above to induce senescence. Approximately 20 days after irradiation, the senescent cells and proliferating IMR90 cells were exposed to enzastaurin at concentrations of 0.25 0.5 and 2 μM.

[2] = system: HUVEC cells; assay: Viability (ATPLITE) of senescent and proliferating HUVEC endothelial cells; type: cell-based, human; settings: enzastaurin in combination with dasatinib, FIG. 4E, 48 hours
Protocol: Human umbilical endothelial cells (HUVEC) (Lonza Group, Basel, Switzerland) were induced to senescence by exposure to 10 Gy radiation. Twenty days after irradiation, markers of cellular senescence (SA-β Gal) and growth arrest, determined by incorporation of BR dU, were evident. Non-senescent HUVEC cells used as control were plated at low density in culture media so that the cells were proliferating when exposed to the test drug. Senescent HUVEC cells and non-senescent, proliferating HUVEC cells were treated for 48 hours with quercetin, dasatinib, and enzastaurin as follows: (1) quercetin alone at 3.75, 7.5 and 15μ,M; (2) dasatinib alone at 25, 50, 100, and 200 nM; (3) enzastaurin alone at concentrations of 0.25 0.5 1 and 2 μM; (4) dasatinib at 100 nM plus quercetin at 7.5 μM; (5) with dasatinib at 50 nM plus quercetin at 7.5 μM; (6) dasatinib at 100 nM plus enzastaurin at 1.0 μM; (7) dasatinib at 100 nM plus enzastaurin at 0.5 μM; (8) dasatinib at 50 nM plus enzastaurin at 1.0 μM; (9) dasatinib at 50 nM plus enzastaurin at 0.5 μM; (10) quercetin at 15 μM and enzastaurin at 1.0 μM; (11) quercetin at 15 μM and enzastaurin at 1.0 μM; and (12) quercetin at 7.5 μM and enzastaurin at 1.0 μM. The number of viable cells was determined by ATPLITE (Perkin-Elmer, Waltham, Mass.). The data are presented in FIGS. 4A-4F as mean viability (ATP (μM))+SEM of 4.

[3] = system: Senescent cells; assay: SA-β-Gal senescent cells in adipose tissue of high fat fed p16-3MR mice; type: in vivo; settings: high fat diet four months, 25 mg/kg daily for five consecutive days, p=<0.004
Protocol: Groups of p16-3MR mice (n=6) were fed a high fat diet (60% fat) for four months mice or a regular chow diet. The presence of senescence cells was determined by measuring luminescence (i.e., p16 positive cells). […] Animals were then treated with ganciclovir or vehicle to determine if removal of senescent cells reduced the presence of senescent cells in adipose tissue. Groups of animals were treated with ganciclovir (GCV) or vehicle. Ganciclovir (25 mg/kg) was administered daily for five consecutive days. The presence of senescent cells in perirenal, epididymal, or subcutaneous inguinal adipose tissue was detected by SA-β-Gal staining Data were analyzed by ANOVA.

[4] = Glucose tolerance test and hemoglobin A1c in high fat fed p16-3MR mice; type: in vivo; settings: high fat diet, 3 rounds of 25 mg/kg daily for five days
Protocol: Groups of p16-3MR mice (n=9) were fed a high fat diet for four months mice or a regular chow diet. Animals were then treated with ganciclovir (3 rounds of 25 mg/kg ganciclovir administered daily for five consecutive days) or vehicle. A glucose bolus was given at time zero, and blood glucose was monitored at 20, 30, 60, and 120 minutes after delivering glucose to determine glucose disposal (see FIG. 18A). This was also quantified as “area under the curve” (AUC) (see FIGS. 18B and 18C), with a higher AUC value indicating glucose intolerance.

[5] = Insulin Tolerance Testing (ITT); type: in vivo, mice
Protocol: Insulin sensitivity was also determined (Insulin Tolerance Testing (ITT)).

[6] = Weight, body composition and food intake monitoring; type: in vivo; settings: p16-3MR mice, high fat diet
From the text: Changes in weight, body composition, and food intake were also monitored.

[7] = Glucose tolerance testing in DIO INK-ATTAC,p16-3MR mice; type: in vivo; settings: compared to vehicle-treated DIO mice
Protocol: Three-month old INK-ATTAC,p16-3MR mice were fed a high fat diet for 4 months. The animals were then treated with ganciclovir or vehicle. DIO mice were treated with ganciclovir on September 1 (see FIG. 21).

Cn1cc(C2=C(c3cn(C4CCN(Cc5ccccn5)CC4)c4ccccc34)C(=O)NC2=O)c2ccccc21 [Enzastaurin, 3-(1-Methylindol-3-yl)-4-[1-[1-(pyridin-2-ylmethyl)piperidin-4-yl]indol-3-yl]pyrrole-2,5-dione]
killing of proliferating IMR90 cells [1]: did not kill the proliferating cells | selective killing of senescent IMR90 cells ([1]; approximately 20 days after 10 Gy irradiation): did not selectively kill the senescent cells | potentiating effect of dasatinib [2]: slight potentiating effect

Nc1nc(O)c2ncn(COC(CO)CO)c2n1 [ganciclovir]
presence of senescent cells in epididymal fat (SA-β-Gal) [3]: significant reduction | Hemoglobin A1c [4]: lower | glucose tolerance test AUC ([4]; vs vehicle-treated): significantly lower | decrease in blood glucose in insulin tolerance testing ([5]; p16-3MR mice fed a high fat diet, 0, 14, 30, 60, and 120 minutes): greater decrease in blood glucose | change in insulin tolerance testing ([5]; wild-type mice): not observed | body composition (percent of fat) [6]: did not alter | body weight [6]: did not alter | food intake (grams per week) [6]: did not alter | glucose tolerance (areas under the curve in glucose tolerance tests) [7]: sustained and improved glucose tolerance
